Results as given in patent publication US20260225998A1, “NEW COMPOUNDS FOR TREATING STREPTOCOCCUS INFECTIONS” (AB2 THERAPEUTICS, S. L., priority 2023, published 2026).
In brackets after ≈: the same amount, converted by molar mass.

Experiments:
Streptococcus pneumoniae = experiment: MIC test, microdilution method (CLSI); type: cell-based; conditions: ATCC strain of Streptococcus pneumoniae, 18-20 h at 37° C., MIC = concentration at which growth inhibited ≥80%, read-out: Activity (MIC) Spn
Protocol: (§1) Experimental Procedure: MIC Test. Microdilution Method
(§2) To evaluate the antimicrobial activity of the compounds, ATCC strains of Streptococcus pneumoniae and Streptococcus pyogenes were used. The minimal inhibitory concentrations (MICs) of the compounds were determined by microdilution assays, according to CLSI methodology.
(§3) 3 mg of compound were weighted in a 4 mL glass vials and were dissolved in properly volume of DMSO 100% (Reference: D2438-50, Sigma) to reach 12.8 mg/mL. (Cmax.).
(§4) In 96-well plates U-form (Reference: 650161, Greiner Bio-One): • Dispense 50 μL of the assayed compounds prepared in DMSO 100% at 12.8 mg/mL in each well in column 1. (8 different compounds per plate, row 1 to row 8) • Dispense 25 μL of DMSO 100% in all wells in columns 2 to 12. • With a multichannel pipette, aspire 25 μL of column 1 and dispense in column 2. Mix the contents in column 2 several times and aspire 25 uL. Dispense in column 3. • Repeat the process until column 10. In column 10, aspire 25 μL of the content and discard. • The final mother plate map is (all values in mg/mL)
(§5) In 96-well plates U-form: • With a multichannel pipette (in dispensing mode), aspire a properly volume (consider the number of copies of the mother plate do you want to perform) of all wells in mother plate, to dispense 1 μL/well in daughter plates.
(§6) Bacterial suspension will be prepared and normalized to 0.5 McFarland turbidity standard (approximately 10^8 CFU/mL) using a physiological saline solution (sodium chloride 0,9%). Then, prepared a 1/1000 dilution (approximately 10^5 CFU/mL) of the suspension in appropriate media (CLSI Standard) and inoculate 99 μL in each well in daughter plates (only columns 1 to 11) using a multidrop™ Combi Reagent Dispenser. In column 12, only 99 μL of media will be dispense as a sterility control.
(§7) The final plate map is (all values in μg/mL):
(§8) Plates will be incubated 18-20 h at 37° C. MIC values will be considered as the concentration of compounds at which the growth will be inhibited=>≥80%, compared to growth control.

Streptococcus pyogenes = experiment: MIC test, microdilution method (CLSI); type: cell-based; conditions: ATCC strain of Streptococcus pyogenes, 18-20 h at 37° C., MIC = concentration at which growth inhibited ≥80%, read-out: Activity (MIC) Spy
Protocol: as §1, §2, §3, §4, §5, §6, §7, §8

Row | SMILES | MIC (Streptococcus pneumoniae) [µg/mL] | MIC (Streptococcus pyogenes) [µg/mL]
1 | NC(=O)[C@@H](O)CNC(=O)c1ccc(O[C@@H](CC2CCCCC2)c2ccc(-c3ccc(F)cc3)cc2)cc1 [Example 1, N-((S)-3-Amino-2-hydroxy-3-oxopropyl)-4-((S)-2-cyclohexyl-1-(4′-fluoro-[1,1′-biphenyl]-4-yl)ethoxy)benzamide] | 4 (≈ 7.93 µM) | 4 (≈ 7.93 µM)
2 | NC(=O)[C@@H](O)CNC(=O)c1ccc(O[C@@H](CC2CCCCC2)c2cccc(-c3ccc(C(F)(F)F)cc3)c2)cc1 [Example 2, N-((S)-3-Amino-2-hydroxy-3-oxopropyl)-4-((S)-2-cyclohexyl-1-(4′-(trifluoromethyl)-[1,1′-biphenyl]-3-yl)ethoxy)benzamide] | 2 (≈ 3.61 µM) | 1 (≈ 1.8 µM)
3 | NC(=O)[C@@H](O)CNC(=O)c1ccc(O[C@@H](CC2CCOCC2)c2ccc(-c3ccc(C(F)(F)F)cc3)cc2)cc1 [Example 4, N-((S)-3-amino-2-hydroxy-3-oxopropyl)-4-((S)-2-(tetrahydro-2H-pyran-4-yl)-1-(4′-(trifluoromethyl)-[1,1′-biphenyl]-4-yl)ethoxy)benzamide] | > 128 | > 128
4 | CC(C)C[C@H](Oc1ccc(C(=O)NC[C@H](O)C(N)=O)cc1)c1ccc(-c2ccc(C(F)(F)F)cc2)cc1 [Example 5, N-((S)-3-amino-2-hydroxy-3-oxopropyl)-4-((S)-3-methyl-1-(4′-(trifluoromethyl)-[1,1′-bipheny]-4-yl)butoxy)benzamide] | > 128 | > 128
5 | CC(C)[C@H](Oc1ccc(C(=O)NC[C@H](O)C(N)=O)cc1)c1ccc(-c2ccc(C(F)(F)F)cc2)cc1 [Example 6, N-((S)-3-amino-2-hydroxy-3-oxopropyl)-4-((S)-2-methyl-1-(4′-(trifluoromethyl)-[1,1′-biphenyl]-4-yl)propoxy)benzamide] | 4 (≈ 7.99 µM) | 4 (≈ 7.99 µM)
6 | CNC(=O)[C@@H](O)CNC(=O)c1ccc(O[C@@H](CC2CCCCC2)c2cccc(-c3ccc(C(F)(F)F)cc3)c2)cc1 [Example 8, 4-((S)-2-cyclohexyl-1-(4′-(trifluoromethyl)-[1,1′-biphenyl]-3-yl)ethoxy)-N-((S)-2-hydroxy-3-(methylamino)-3-oxopropyl)benzamide] | 4 (≈ 7.03 µM) | 4 (≈ 7.03 µM)
